Source: patent publication US10800816B2 (Baxalta GmbH, priority 2012, dated 2020)
Values belong to the molecule of their own block, whether it stands above or below them.

Columns and labels:
TFPI = assay: IC50 ELISA | Mean IC50 [nM]
From the text: Table printed on a drawing sheet, FIGURE 78Z
Head of the field: IC50 ELISA | Mean IC50 [nM]
First copying reader's note: Continued table: the first body row (45.67) belongs to a compound on the preceding sheet, the last row probably continues on the next sheet, and cells with several values list single replicates.

[1] = Pharmacokinetics in C57Bl6 mice; format: in vivo, mouse; details: 1 mg/kg peptide content, 1 mg/kg; for Bioavailability [%] (s.c.): s.c. AUC vs i.v. AUC

Molecule: CC(C)C[C@@H]1NC(=O)[C@H](CCCCN)NC(=O)[C@H](C)NC(=O)C(C)(C)NC(=O)[C@H](CC(C)C)NC(=O)[C@H](CCCNC(=N)N)NC(=O)[C@H](CCC(=O)O)NC(=O)[C@H](Cc2ccccc2)NC(=O)[C@H](Cc2ccc(O)cc2)NC(=O)CNC(=O)[C@H](CC(=O)O)NC(=O)[C@H](C(C)C)NC(=O)[C@H](Cc2c[nH]cn2)NC(=O)[C@H](C(C)C)NC(=O)[C@H](CC(N)=O)NC(=O)[C@H]2CCCN2C(=O)[C@H](CCCCN)NC(=O)[C@H](CO)NC(=O)[C@H](CCC(N)=O)NC(=O)[C@H](Cc2ccccc2)NC(=O)COCCOCCNC1=O [JBT00002408]
24 h Human Plasma Stability | Mean Remaining [%] (FIGURE 78P): 61.60%
24 h Mouse Plasma Stability | Mean Remaining [%] (FIGURE 78P): 39.40%

24 h Mouse Plasma Stability | Mean Remaining [%] (FIGURE 78P): 93.20%
Molecule: Ac-FQSKpNVHVDGYF-C(ME-400MA)-RL-Aib-AKL-NH2 [JBT00002404]

IC50 (TFPI): 71.1 nM
Molecule: Hex-FQSKp-Cys(Acm)-VH-Tle-DaYFERL-Aib-AK-OH [JBT00002543]

24 h Mouse Plasma Stability | Mean Remaining [%] (FIGURE 78P): 79.15%
Molecule: Ac-FQSKpNVHVDGYFERL-Aib-AKLK(Ttds-Maleimid-HSA)- NH2 [JBT00002410]

Molecule: CCN1C(=O)CC(SC[C@H](NC(=O)[C@H](Cc2ccccc2)NC(=O)[C@H](Cc2ccc(O)cc2)NC(=O)CNC(=O)[C@H](CC(=O)O)NC(=O)[C@@H](NC(=O)[C@H](Cc2c[nH]cn2)NC(=O)[C@@H](NC(=O)[C@H](CC(N)=O)NC(=O)[C@H]2CCCN2C(=O)[C@H](CCCCN)NC(=O)[C@H](CO)NC(=O)[C@H](CCC(N)=O)NC(=O)[C@H](Cc2ccccc2)NC(C)=O)C(C)C)C(C)C)C(=O)N[C@@H](CCCNC(=N)N)C(=O)N[C@@H](CC(C)C)C(=O)NC(C)(C)C(=O)N[C@@H](C)C(=O)N[C@@H](CCCCN)C(=O)N[C@@H](CC(C)C)C(N)=O)C1=O (stereo partly shown) [JBT00002399]
24 h Human Plasma Stability | Mean Remaining [%] (FIGURE 78O): 10.70%

IC50 (TFPI): 10.1 nM
Molecule: Hex-FQSKp-Cys(Acm)-VH-Tle-DaYFERL-Aib-AKL-Ttds- K(Ttds-Myr)--NH2 [JBT00002539]

Molecule: CC(C)C[C@@H]1NC(=O)[C@H](CCCCN)NC(=O)[C@H](C)NC(=O)C(C)(C)NC(=O)[C@H](CC(C)C)NC(=O)[C@H](CCCNC(=N)N)NC(=O)[C@H](CCC(=O)O)NC(=O)[C@H](Cc2ccccc2)NC(=O)[C@H](Cc2ccc(O)cc2)NC(=O)CNC(=O)[C@H](CC(=O)O)NC(=O)[C@H](C(C)C)NC(=O)[C@H](Cc2c[nH]cn2)NC(=O)[C@H](C(C)C)NC(=O)[C@H](CC(N)=O)NC(=O)[C@H]2CCCN2C(=O)[C@H](CCCCN)NC(=O)[C@H](CO)NC(=O)[C@H](CCC(N)=O)NC(=O)[C@H](Cc2ccccc2)NC(=O)CCOCCOCCOCCOCCOCCNC1=O [JBT00002405]
24 h Human Plasma Stability | Mean Remaining [%] (FIGURE 78P): 55.90%

Molecule: CC(C)C[C@@H]1NC(=O)[C@H](CCCCN)NC(=O)[C@H](C)NC(=O)C(C)(C)NC(=O)[C@H](CC(C)C)NC(=O)[C@H](CCCNC(=N)N)NC(=O)[C@H](CCC(=O)O)NC(=O)[C@H](Cc2ccccc2)NC(=O)[C@H](Cc2ccc(O)cc2)NC(=O)CNC(=O)[C@H](CC(=O)O)NC(=O)[C@H](C(C)C)NC(=O)[C@H](Cc2c[nH]cn2)NC(=O)[C@H](C(C)C)NC(=O)[C@H](CC(N)=O)NC(=O)[C@H]2CCCN2C(=O)[C@H](CCCCN)NC(=O)[C@H](CO)NC(=O)[C@H](CCC(N)=O)NC(=O)[C@H](Cc2ccccc2)NC(=O)CCOCCOCCOCCNC1=O [JBT00002407]
24 h Human Plasma Stability | Mean Remaining [%] (FIGURE 78P): 45.20%

Molecule: CCSC1CC(=O)N(CCC(=O)NCCCOCCOCCOCCCNC(=O)CCC(=O)NCCCC[C@H](NC(=O)[C@H](CC(C)C)NC(=O)[C@H](CCCCN)NC(=O)[C@H](C)NC(=O)C(C)(C)NC(=O)[C@H](CC(C)C)NC(=O)[C@H](CCCNC(=N)N)NC(=O)[C@H](CCC(=O)O)NC(=O)[C@H](Cc2ccccc2)NC(=O)[C@H](Cc2ccc(O)cc2)NC(=O)CNC(=O)[C@H](CC(=O)O)NC(=O)[C@@H](NC(=O)[C@H](Cc2c[nH]cn2)NC(=O)[C@@H](NC(=O)[C@H](CC(N)=O)NC(=O)[C@H]2CCCN2C(=O)[C@H](CCCCN)NC(=O)[C@H](CO)NC(=O)[C@H](CCC(N)=O)NC(=O)[C@H](Cc2ccccc2)NC(C)=O)C(C)C)C(C)C)C(N)=O)C1=O (stereo partly shown) [JBT00002400]
24 h Human Plasma Stability | Mean Remaining [%] (FIGURE 78O): 60.00%

24 h Human Plasma Stability | Mean Remaining [%] (FIGURE 78O): 96.70%
24 h Mouse Plasma Stability | Mean Remaining [%] (FIGURE 78O): 92.50%
Molecule: Ac-FQSKpNVHV-C(ME-400MA)-GYFERL-Aib-AKL-NH2 [JBT00002403]

IC50 (TFPI): 15.3 nM
Molecule: Hex-FQSKp-Cys(Acm)-VH-Tle-DaYFERL-Aib-AKLC(ME- 400MA)-NH2 [JBT00002534]

Molecule: CCN1C(=O)CC(SC[C@H](NC(=O)[C@H]2CCCN2C(=O)[C@H](CCCCN)NC(=O)[C@H](CO)NC(=O)[C@H](CCC(N)=O)NC(=O)[C@H](Cc2ccccc2)NC(C)=O)C(=O)N[C@H](C(=O)N[C@@H](Cc2c[nH]cn2)C(=O)N[C@H](C(=O)N[C@@H](CC(=O)O)C(=O)NCC(=O)N[C@@H](Cc2ccc(O)cc2)C(=O)N[C@@H](Cc2ccccc2)C(=O)N[C@@H](CCC(=O)O)C(=O)N[C@@H](CCCNC(=N)N)C(=O)N[C@@H](CC(C)C)C(=O)NC(C)(C)C(=O)N[C@@H](C)C(=O)N[C@@H](CCCCN)C(=O)N[C@@H](CC(C)C)C(N)=O)C(C)C)C(C)C)C1=O (stereo partly shown) [JBT00002397]
24 h Human Plasma Stability | Mean Remaining [%] (FIGURE 78O): 10.60%

IC50 (TFPI): 24.3 nM
Molecule: Hex-FQSKp-Cys(Acm)-VH-Tle-DaYFERL-Aib-AKLK(Ttds- gGlu-Myr)--NH2 [JBT00002541]

Molecule: CCN1C(=O)CC(SC[C@H](NC(=O)[C@@H](NC(=O)[C@H](Cc2c[nH]cn2)NC(=O)[C@@H](NC(=O)[C@H](CC(N)=O)NC(=O)[C@H]2CCCN2C(=O)[C@H](CCCCN)NC(=O)[C@H](CO)NC(=O)[C@H](CCC(N)=O)NC(=O)[C@H](Cc2ccccc2)NC(C)=O)C(C)C)C(C)C)C(=O)NCC(=O)N[C@@H](Cc2ccc(O)cc2)C(=O)N[C@@H](Cc2ccccc2)C(=O)N[C@@H](CCC(=O)O)C(=O)N[C@@H](CCCNC(=N)N)C(=O)N[C@@H](CC(C)C)C(=O)NC(C)(C)C(=O)N[C@@H](C)C(=O)N[C@@H](CCCCN)C(=O)N[C@@H](CC(C)C)C(N)=O)C1=O (stereo partly shown) [JBT00002398, Ac-FQSKpNVHV-C(NEM)-GYFERL-Aib-AKL-NH2]
24 h Human Plasma Stability | Mean Remaining [%] (FIGURE 78O): 39.05%
24 h Mouse Plasma Stability | Mean Remaining [%] (FIGURE 78O): 21.60%

Molecule: Ac-FQSKpNVHVDGYFERL-Aib-AKLC(PEG)-NH2 [JBT2328] (FQSKPNVHVDGYFERLXAKLC; acetyl, D-Pro, Aib, Cys-PEG 29.1 kD, amide; MOD_RES (1)..(1): N-terminal acetylation; MOD_RES (5)..(5): D-Pro; MOD_RES (17)..(17): Xaa is 2-amino-isobutyric acid; MOD_RES (21)..(21): Cys-PEG; MOD_RES (21)..(21): C-terminal amidation) [PEG 29.1 kD, linear maleimide PEG]
HL_λ_z [h] (intravenous) [1]: 10.1 h
Bioavailability [%] (s.c.) [1]: 52.0%

Molecule: Ac-FQSKpNVHVDGYFERL-Aib-AKLC(PEG)-NH2 [JBT2326] (FQSKPNVHVDGYFERLXAKLC; acetyl, D-Pro, Aib, Cys-PEG 12.1 kD, amide; MOD_RES (1)..(1): N-terminal acetylation; MOD_RES (5)..(5): D-Pro; MOD_RES (17)..(17): Xaa is 2-amino-isobutyric acid; MOD_RES (21)..(21): Cys-PEG; MOD_RES (21)..(21): C-terminal amidation)
HL_λ_z [h] (intravenous) [1]: 0.35 h
Bioavailability [%] (s.c.) [1]: 76.0%

Molecule: Ac-FQSKpNVHVDGYFERL-Aib-AKLC(PEG)-NH2 [JBT2325] (FQSKPNVHVDGYFERLXAKLC; acetyl, D-Pro, Aib, Cys-PEG 5.3 kD, amide; MOD_RES (1)..(1): N-terminal acetylation; MOD_RES (5)..(5): D-Pro; MOD_RES (17)..(17): Xaa is 2-amino-isobutyric acid; MOD_RES (21)..(21): Cys-PEG; MOD_RES (21)..(21): C-terminal amidation) [PEG 5.3 kD, linear maleimide PEG]
HL_λ_z [h] (intravenous) [1]: 0.16 h
Bioavailability [%] (s.c.) [1]: 58.2%

Molecule: CC(C)C[C@@H]1NC(=O)[C@H](CCCCN)NC(=O)[C@H](C)NC(=O)C(C)(C)NC(=O)[C@H](CC(C)C)NC(=O)[C@H](CCCNC(=N)N)NC(=O)[C@H](CCC(=O)O)NC(=O)[C@H](Cc2ccccc2)NC(=O)[C@H](Cc2ccc(O)cc2)NC(=O)CNC(=O)[C@H](CC(=O)O)NC(=O)[C@H](C(C)C)NC(=O)[C@H](Cc2c[nH]cn2)NC(=O)[C@H](C(C)C)NC(=O)[C@H](CC(N)=O)NC(=O)[C@H]2CCCN2C(=O)[C@H](CCCCN)NC(=O)[C@H](CO)NC(=O)[C@H](CCC(N)=O)NC(=O)[C@H](Cc2ccccc2)NC(=O)CCOCCOCCOCCOCCNC1=O [JBT00002406]
24 h Human Plasma Stability | Mean Remaining [%] (FIGURE 78P): 62.80%
24 h Mouse Plasma Stability | Mean Remaining [%] (FIGURE 78P): 38.10%

24 h Human Plasma Stability | Mean Remaining [%] (FIGURE 78O): 75.30%
24 h Mouse Plasma Stability | Mean Remaining [%] (FIGURE 78O): 99.70%
Molecule: Ac-FQSKp-C(ME-400MA)-VHVDGYFERL-Aib-AKL-NH2 [JBT00002402]

Molecule: Ac-FQSKpNVHVDGYFERL-Aib-AKLC(PEG)-NH2 [JBT2327] (FQSKPNVHVDGYFERLXAKLC; acetyl, D-Pro, Aib, Cys-PEG 21.0 kD, amide; MOD_RES (1)..(1): N-terminal acetylation; MOD_RES (5)..(5): D-Pro; MOD_RES (17)..(17): Xaa is 2-amino-isobutyric acid; MOD_RES (21)..(21): Cys-PEG; MOD_RES (21)..(21): C-terminal amidation) [PEG 21.0 kD, linear maleimide PEG]
HL_λ_z [h] (intravenous) [1]: 4.2 h
Bioavailability [%] (s.c.) [1]: 89.7%

IC50 (TFPI): 3.99 nM
Molecule: Hex-FQSKp-Cys(Acm)-VH-Tle-DaYFERL-Aib-AKLK(Ttds- Ac)--NH2 [JBT00002540]

IC50 (TFPI): 3.1 nM
Molecule: (Hex-FQSKp-Cys(Acm)-VH-Tle-DaYFERL-Aib-AKLC- NH2)2-M2TriO [JBT00002533]
